Holding throughout (type): functional
The test system of experiment [1] is Rattus norvegicus. The experiment can be described thus: Antihyperglycemic activity in streptozotocin-induced diabetic Sprague-Dawley rat model assessed as glucose tolerance at 100 mg/kg, po administered 30 mins before sucrose-load.
The subject of experiment [2] is Mus musculus. Kind of experiment: Antihyperglycemic activity in diabetic C57BL/KsJ-db/db mouse model assessed as decrease in postprandial blood glucose level at 50 mg/kg, po for 10 days relative to control. More on the design: scale not given: the % may be the effect or the level left.
Experiment [3] has as its system Mus musculus. The experiment can be described thus: Antihyperglycemic activity in diabetic C57BL/KsJ-db/db mouse model assessed as improvement in glucose tolerance at 50 mg/kg, po for 10 days relative to control by OGTT.
In experiment [4] the test system is Mus musculus. The experiment can be described thus: Antihyperglycemic activity in diabetic C57BL/KsJ-db/db mouse model assessed as decrease in blood glucose AUC at 50 mg/kg, po for 10 days relative to control. More on the design: scale not given: the % may be the effect or the level left.
Experiment [5] deals with Mus musculus. The experiment can be described thus: Antihyperglycemic activity in diabetic C57BL/KsJ-db/db mouse model assessed as decrease in plasma triglyceride level at 50 mg/kg, po for 10 days relative to control. Details: scale not given: the % may be the effect or the level left.
Experiment [6] relates to Mus musculus. Kind of experiment: Antihyperglycemic activity in diabetic C57BL/KsJ-db/db mouse model assessed as decrease in total cholesterol at 50 mg/kg, po for 10 days relative to control. Details: scale not given: the % may be the effect or the level left.
For experiment [7], the system named is Mus musculus. The experiment can be described thus: Antihyperglycemic activity in diabetic C57BL/KsJ-db/db mouse model assessed as increase in high-density lipoprotein cholesterol at 50 mg/kg, po for 10 days relative to control.
Experiment [8] relates to Mus musculus. Kind of experiment: Antihyperglycemic activity in diabetic C57BL/KsJ-db/db mouse model assessed as decrease in low-density lipoprotein cholesterol at 50 mg/kg, po for 10 days relative to control. Details: scale not given: the % may be the effect or the level left.
The test system of experiment [9] is Mus musculus. The experiment can be described thus: Antihyperglycemic activity in diabetic C57BL/KsJ-db/db mouse model assessed as decrease in very low-density lipoprotein cholesterol at 50 mg/kg, po for 10 days relative to control. Details: scale not given: the % may be the effect or the level left.
The test system of experiment [10] is Mus musculus. The experiment can be described thus: Antihyperglycemic activity in po dosed diabetic C57BL/KsJ-db/db mouse model assessed as decrease in postprandial blood glucose level for 10 days. As to conditions: 240 h.
Experiment [11] concerns Rattus norvegicus. The experiment can be described thus: Antihyperglycemic activity in Sprague-Dawley normoglycemic rat model assessed as glucose tolerance at 100 mg/kg, po administered 30 mins before sucrose-load.

As usually defined, the ED50 is the dose that gives a 50% effect, or the effect in half of the subjects.

As for `CC1=C(C)C(=O)O[C@@H]([C@](C)(O)[C@]2(O)CC[C@@]3(O)[C@@H]4CC=C5C[C@@H](O[C@@H]6O[C@H](CO)[C@@H](O)[C@H](O)[C@H]6O)CC(=O)[C@]5(C)[C@H]4CC[C@]23C)C1`, the Activity was found to be 23.3% in the experiment with Rattus norvegicus [1]; 22.7% in the experiment on Mus musculus [2]; 44.1% with Mus musculus [3]; 40.5% in the experiment with Mus musculus [4]; 14.7% in the experiment on Mus musculus [5]; 25.7% in the experiment on Mus musculus [6]. In addition, the Activity was 24.7% in the experiment on Mus musculus [7], 21.2% with Mus musculus [8], 15.6% in the experiment with Mus musculus [9] and 29.8% with Rattus norvegicus [11]. Moreover, the ED50 in the experiment on Mus musculus [10] came to 25 mg/kg.
Turning to `CC1=C(C)C(=O)O[C@@H]([C@](C)(O)[C@]2(O)CC[C@@]3(O)[C@@H]4CC=C5C=CCC(=O)[C@]5(C)[C@H]4CC[C@]23C)C1`, the Activity with Rattus norvegicus [1] was 15.8%; with Rattus norvegicus [11], 20.4%.
Regarding `CC1=C(C)C(=O)O[C@@H]([C@](C)(O)[C@]2(O)C[C@H](O)[C@@]3(O)[C@@H]4CC=C5CC=CC(=O)[C@]5(C)[C@H]4CC[C@@]32C)C1` [COAGULANOLIDE], the Activity with Rattus norvegicus [1] is on record as 14.7%; in the experiment on Rattus norvegicus [11] it was 28.1%.
As for `CC1=C(C)C(=O)O[C@@H]([C@]2(C)O[C@@]34CC[C@]2(O)[C@@]3(C)CC[C@H]2[C@H]4CC=C3CC=CC(=O)[C@@]32C)C1` [COAGULIN C], the Activity is reported as 16.9% with Rattus norvegicus [1] and 22.8% in the experiment with Rattus norvegicus [11].
For the compound `CC(C)OC(=O)C(C)(C)Oc1ccc(C(=O)c2ccc(Cl)cc2)cc1` [FENOFIBRATE], the Activity in the experiment on Mus musculus [5] amounted to 16.2%; in the experiment on Mus musculus [6], 30.8%; with Mus musculus [7] it was 12.4%; in the experiment on Mus musculus [8] it was 24.5%; in the experiment with Mus musculus [9], 21.6%.
As to `CN(C)C(=N)NC(=N)N` [METFORMIN], the Activity with Rattus norvegicus [1] stood at 17.1%; with Mus musculus [2], 18.6%; with Mus musculus [3], 24.8%; with Mus musculus [4], 24.8%; in the experiment on Rattus norvegicus [11], 26.4%.
As to `CC1=C(C)C(=O)O[C@@H]([C@](C)(O)[C@]2(O)CC[C@@]3(O)[C@@H]4CC=C5CC=CC(=O)[C@]5(C)[C@H]4CC[C@]23C)C1` [WITHANOLIDE F], the values for the Activity with Rattus norvegicus [1] and in the experiment with Rattus norvegicus [11] were 18.2% and 24.9%, respectively.

These data come from ChEMBL document CHEMBL1152162, “Coagulanolide, a withanolide from Withania coagulans fruits and antihyperglycemic activity” (2008).
